Laboratory results reported in patent US10242153B2, “Method for determining the risk profile of neoplastic tissue” (NOVAZOI THERANOSTICS, priority 2014, dated 2019).

Assays:
N1E-115 cells = assay: Neuritogenesis (neurite extension) in serum-starved N1E-115 cells; assay type: cell-based, murine; conditions: 48 h, PJ-34 10 μM, Paclitaxel 0.05 μM
Description: N1E-115 cells grown in serum-starved (SS) medium were evaluated to determine the extent of neurite formation after 48 h of treatment with RedBr-Nos (5 μM), Griseofulvin (10 μM), PJ-34 (10 μM), Paclitaxel (0.05 μM) treatment or untreated control cells (i.e., serum-starved medium (SS) alone). Panels Ai and Aii depict quantitative bar graphs representing the average length of neurites and percentage of population of cells showing neurite length >10 μm, respectively. A hundred cells were counted in each case. […] Panel B depicts an immunoblot showing CLASP1 expression levels in control (C) and CLASP1 siRNA-transfected N1E-115 cells.
Neuritogenesis is a process in nerve cells involving the extension of polarized, elongated neurites. N1E-115 cells usually extend only one major neurite per cell, which can vary in length from 5 to 500 μm. The growth cones of the neurites serve as primary focal points of motility. The effect of declustering agents on cell motility was evaluated by assessing the length and frequency of neurites formed in a serum-free medium on a laminin-coated surface.

[1] = system: human ovarian cancer xenografts; conditions: nude mice carrying human ovarian cancer xenografts; cited from earlier work
231, HeLa and PC3 cells = assay: Centrosome amplification (CA) by microscopy across cancer cell lines; assay type: cell-based; conditions: 25 μM
Description: Consequently, CA was assessed in cultures treated with different concentrations of declustering drugs for 6, 12, 18, or 24 h and untreated controls via microscopy. Centrosomes were identified by γ-tubulin and centrin-2 colocalization at discrete foci.
The peak percent CA detected over 24 h is shown in FIG. 13 (only statistically significant (P<0.05) increases over control values are represented in the Figures).
To better understand the “potency” of drug-induced CA with time, the average fold change in CA over controls over 24 h was assessed (FIG. 12, panel A), whereby the extent of CA across time points (i.e., 6, 12, 18, and 24 hr) was averaged and then divided by the extent of CA in control (i.e., 0 hr). All of the drugs at least doubled the peak extent of CA in all cell lines tested (FIG. 12, panel A), although the final extent of CA could be small or large in magnitude depending on the initial centrosomal burden as shown in FIG. 11. […] The extent of CA was less in interphase cells, with maximum values of 31% and 87% for 10 and 25 μM RBN (FIG. 13, panel A). […] The peak extent in interphase HeLa cells was somewhat less at 30.7% and 48.1% for 10 and 25 μM RBN, respectively (FIG. 13, panel A). For Nos and BN, there was no major difference in CA levels in interphase versus mitotic cells.

Compound | inhibition of neurite extension (N1E-115 cells) | toxicity in normal tissues [1] | tumor progression [1] | induction of CA (231, HeLa and PC3 cells)
CN(C)CC(=O)Nc1ccc2[nH]c(=O)c3ccccc3c2c1 [PJ, PJ-34] | moderate inhibition |  |  | 
reduced-9-bromonoscapine [RBN] |  | toxicity was not detected | inhibited tumor progression | induced CA in all three cell lines
